# Reference: paper PMC3128679 (Bioorganic & medicinal chemistry letters, 2011)
# Tests used:
# Type in all cases: biochemical
# SHP1 = SHP1 (Homo sapiens, UniProt P29350); experiment: SHP1 inhibition assay
# PTP1B = molecular target: T1, PTP1B (Homo sapiens, UniProt P18031); experiment: PTP1B inhibition assay
# T1 sequence (P18031 1-435): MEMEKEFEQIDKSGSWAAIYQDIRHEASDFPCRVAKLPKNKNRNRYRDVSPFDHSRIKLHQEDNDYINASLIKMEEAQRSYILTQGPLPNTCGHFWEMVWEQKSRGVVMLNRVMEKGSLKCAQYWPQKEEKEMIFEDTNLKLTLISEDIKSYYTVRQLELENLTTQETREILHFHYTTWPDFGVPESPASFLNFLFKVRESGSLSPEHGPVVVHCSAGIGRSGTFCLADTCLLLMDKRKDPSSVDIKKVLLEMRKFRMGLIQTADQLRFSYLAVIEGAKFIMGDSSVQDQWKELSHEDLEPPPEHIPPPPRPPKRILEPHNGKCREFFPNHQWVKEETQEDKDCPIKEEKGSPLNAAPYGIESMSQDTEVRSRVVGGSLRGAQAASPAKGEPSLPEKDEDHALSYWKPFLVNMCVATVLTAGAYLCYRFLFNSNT
# SHP2 [1] = molecular target: T2, SHP2 (Homo sapiens, UniProt Q06124); experiment: in vitro SHP2 inhibition assay; conditions: for SHP2 inhibition at 1 mM: 1 mM compound concentration
# T2 sequence (Q06124 1-593): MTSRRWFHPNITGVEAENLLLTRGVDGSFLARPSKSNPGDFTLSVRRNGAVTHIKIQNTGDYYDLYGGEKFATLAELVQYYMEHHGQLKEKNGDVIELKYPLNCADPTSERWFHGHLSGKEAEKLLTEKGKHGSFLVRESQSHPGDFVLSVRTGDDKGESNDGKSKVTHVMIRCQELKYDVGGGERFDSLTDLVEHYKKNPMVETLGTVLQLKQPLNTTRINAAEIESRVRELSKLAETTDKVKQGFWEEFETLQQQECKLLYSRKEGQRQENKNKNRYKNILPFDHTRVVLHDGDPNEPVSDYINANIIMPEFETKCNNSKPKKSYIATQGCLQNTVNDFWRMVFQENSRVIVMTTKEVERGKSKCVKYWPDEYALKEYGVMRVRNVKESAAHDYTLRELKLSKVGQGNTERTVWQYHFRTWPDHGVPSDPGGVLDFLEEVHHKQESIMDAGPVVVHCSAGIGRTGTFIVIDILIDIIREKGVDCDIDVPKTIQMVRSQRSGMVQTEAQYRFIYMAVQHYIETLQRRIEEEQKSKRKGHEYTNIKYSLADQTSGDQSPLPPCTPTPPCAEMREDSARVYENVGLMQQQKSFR
# SHP2 [2] = molecular target: T2, SHP2; experiment: steady-state enzyme kinetic analysis of SHP2 inhibition; conditions: C21 at 0, 4, 8 and 12 µM
# VHR = VHR (Homo sapiens, UniProt P51452); experiment: PTP panel inhibition assay, VHR; conditions: at 100 µM
# VHR, sequence (P51452 whole entry, species assumed): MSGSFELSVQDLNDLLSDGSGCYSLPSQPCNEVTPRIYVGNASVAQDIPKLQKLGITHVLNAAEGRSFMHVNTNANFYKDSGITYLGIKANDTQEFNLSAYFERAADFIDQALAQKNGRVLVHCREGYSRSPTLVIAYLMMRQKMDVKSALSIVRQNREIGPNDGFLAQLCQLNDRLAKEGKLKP
# LYP = molecular target: T3, LYP (Homo sapiens, UniProt Q9Y2R2); experiment: PTP panel inhibition assay, LYP; conditions: at 100 µM
# T3 sequence (Q9Y2R2 1-807): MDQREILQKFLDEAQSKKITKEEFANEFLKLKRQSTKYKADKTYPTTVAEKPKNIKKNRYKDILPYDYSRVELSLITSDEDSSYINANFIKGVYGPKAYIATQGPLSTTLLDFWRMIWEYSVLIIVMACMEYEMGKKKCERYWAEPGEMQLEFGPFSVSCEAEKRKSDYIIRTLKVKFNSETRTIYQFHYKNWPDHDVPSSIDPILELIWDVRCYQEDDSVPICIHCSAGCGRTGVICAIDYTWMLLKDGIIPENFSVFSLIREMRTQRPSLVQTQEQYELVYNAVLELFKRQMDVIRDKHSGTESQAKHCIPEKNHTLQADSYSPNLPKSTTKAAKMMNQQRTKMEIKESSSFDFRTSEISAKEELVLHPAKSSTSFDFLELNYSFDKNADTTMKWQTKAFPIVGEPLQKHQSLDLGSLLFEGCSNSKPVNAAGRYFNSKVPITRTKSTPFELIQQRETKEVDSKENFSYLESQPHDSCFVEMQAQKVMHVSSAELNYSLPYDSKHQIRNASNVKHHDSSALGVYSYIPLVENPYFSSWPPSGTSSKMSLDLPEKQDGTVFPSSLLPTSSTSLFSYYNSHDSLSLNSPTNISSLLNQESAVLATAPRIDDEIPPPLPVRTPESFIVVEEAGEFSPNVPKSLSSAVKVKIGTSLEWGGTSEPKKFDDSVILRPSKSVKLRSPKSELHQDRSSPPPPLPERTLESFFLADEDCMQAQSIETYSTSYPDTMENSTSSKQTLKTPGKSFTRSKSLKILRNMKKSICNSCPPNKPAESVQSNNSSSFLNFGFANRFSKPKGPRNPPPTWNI
# Cdc14 = experiment: PTP panel inhibition assay, Cdc14; conditions: at 100 µM
# PTPα = PTPα (Homo sapiens, UniProt P18433); experiment: PTP panel inhibition assay, PTPα; conditions: at 100 µM
# PTPα, sequence (P18433 20-802): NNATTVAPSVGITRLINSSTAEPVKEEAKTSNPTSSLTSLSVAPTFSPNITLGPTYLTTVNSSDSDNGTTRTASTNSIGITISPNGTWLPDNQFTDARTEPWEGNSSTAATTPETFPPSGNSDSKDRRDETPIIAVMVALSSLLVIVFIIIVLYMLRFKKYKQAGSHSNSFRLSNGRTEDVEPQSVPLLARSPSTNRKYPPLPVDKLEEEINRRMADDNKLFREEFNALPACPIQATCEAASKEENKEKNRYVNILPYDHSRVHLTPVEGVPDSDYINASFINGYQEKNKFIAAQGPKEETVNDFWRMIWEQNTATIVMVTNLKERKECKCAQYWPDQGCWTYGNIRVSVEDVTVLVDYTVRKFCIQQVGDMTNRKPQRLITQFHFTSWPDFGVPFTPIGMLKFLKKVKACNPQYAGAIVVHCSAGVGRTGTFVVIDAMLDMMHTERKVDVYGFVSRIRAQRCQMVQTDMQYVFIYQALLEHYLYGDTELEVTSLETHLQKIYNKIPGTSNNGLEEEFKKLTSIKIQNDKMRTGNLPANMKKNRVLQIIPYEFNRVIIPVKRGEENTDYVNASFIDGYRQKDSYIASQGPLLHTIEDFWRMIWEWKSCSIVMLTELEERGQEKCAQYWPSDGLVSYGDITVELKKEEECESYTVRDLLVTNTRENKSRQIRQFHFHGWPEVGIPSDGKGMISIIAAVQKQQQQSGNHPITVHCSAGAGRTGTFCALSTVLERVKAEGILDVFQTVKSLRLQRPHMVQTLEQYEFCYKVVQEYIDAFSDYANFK
# SHP1, sequence (P29350 whole entry): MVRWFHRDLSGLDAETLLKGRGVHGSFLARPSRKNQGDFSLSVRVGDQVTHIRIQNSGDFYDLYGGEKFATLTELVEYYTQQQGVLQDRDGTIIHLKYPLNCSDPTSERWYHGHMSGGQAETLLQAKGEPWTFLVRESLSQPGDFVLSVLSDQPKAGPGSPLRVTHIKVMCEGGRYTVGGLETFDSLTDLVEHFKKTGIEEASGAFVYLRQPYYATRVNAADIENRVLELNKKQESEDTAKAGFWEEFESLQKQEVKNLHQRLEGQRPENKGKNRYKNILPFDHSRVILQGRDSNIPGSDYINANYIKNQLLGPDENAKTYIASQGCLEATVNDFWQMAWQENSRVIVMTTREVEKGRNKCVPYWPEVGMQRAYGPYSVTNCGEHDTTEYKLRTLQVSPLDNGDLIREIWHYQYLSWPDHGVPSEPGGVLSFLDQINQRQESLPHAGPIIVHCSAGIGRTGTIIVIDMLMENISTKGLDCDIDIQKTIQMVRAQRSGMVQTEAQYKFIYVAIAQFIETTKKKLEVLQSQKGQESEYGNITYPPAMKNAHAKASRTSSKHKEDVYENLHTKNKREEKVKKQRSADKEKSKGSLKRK
smiles,measurement,setting,value
CC(=O)N(c1ccc2oc3c(c2c1)CCCC3)S(=O)(=O)c1ccc(C(=O)O)cc1 [Compound C18],inhibition against SHP1 compared with SHP2 (in words),SHP1,better inhibition
same,inhibition against PTP1B compared with SHP2 (in words),PTP1B,better inhibition
same,concentration dependence of SHP2 inhibition,SHP2 [1],concentration-dependent inhibition
same,inhibitory activity against SHP2 (in words),SHP2 [1],only moderate inhibitory activity
O=C(O)C1=NN(c2ccc(S(=O)(=O)O)cc2)C(=O)C1 [Compound C21-A2],fold decreased affinity for SHP2,SHP2 [1]; relative to C21-A1,~ 4 fold
O=C(O)C1=NN(c2ccccc2)C(=O)C1 [Compound C21-A3],IC50,SHP2 [1],> 1 mM
same,SHP2 inhibition at 1 mM,SHP2 [1],failed to inhibit SHP2
Cc1cc(S(=O)(=O)O)c(S(=O)(=O)O)cc1N1N=C(C(=O)O)CC1=O [Compound C21],mode of inhibition against SHP2,SHP2 [2],reversible and competitive
same,inhibition of VHR,VHR,almost no inhibition
same,concentration dependence of SHP2 inhibition,SHP2 [1],concentration-dependent inhibition
same,inhibition of LYP,LYP,almost no inhibition
same,inhibition of Cdc14,Cdc14,almost no inhibition
same,inhibition of PTPα,PTPα,almost no inhibition
CC1=NN(c2ccc(S(=O)(=O)O)cc2C)C(=O)C1 [Compound C21-A4],IC50,SHP2 [1],> 1 mM
same,SHP2 inhibition at 1 mM,SHP2 [1],failed to inhibit SHP2
CC(=O)c1c(C)oc2ccc(NS(=O)(=O)c3cccc(C(=O)O)c3)cc12 [Compound C30],inhibition against SHP1 compared with SHP2 (in words),SHP1,better inhibition
same,inhibition against PTP1B compared with SHP2 (in words),PTP1B,better inhibition
same,concentration dependence of SHP2 inhibition,SHP2 [1],concentration-dependent inhibition
same,inhibitory activity against SHP2 (in words),SHP2 [1],only moderate inhibitory activity
Cc1cc(S(=O)(=O)O)ccc1N1N=C(C(=O)O)CC1=O [Compound C21-A1],fold decreased SHP2 inhibition,SHP2 [1]; relative to C21,~ 5 fold
